Data on one substance can be found in patent publication US20130035302A1, “USE OF […] ANALOGUES AND DERIVATIVES THEREOF FOR TREATING AND/OR PREVENTING NEURODEGENERATIVE DISEASES LINKED TO TAU AND BETA AMYLOID” (UNIVERSIDADE DE SANTIAGO DE COMPOSTELA, priority 2010, published 2013).

The subject of data set [1] is primary cortical cultures. The data set is described as follows: Cellular viability, Alamar Blue fluorescence assay. Format: cell-based, mouse. As to conditions: primary cortical neurones, up to concentrations of 1 nM, Alamar Blue 10%. The text has this:
(§1) In order to carry out the experiments of the present invention, either an in vitro cortical neuronal model with simultaneous overexpression of Tau and β-amyloid, obtained from a model of Alzheimer's disease in triple-transgenic (3xTg-AD or 3xTg) mice, obtainable via the detailed procedure in the international patent application WO 2003/053136 and provided by the title holders of this application, or an in vitro cortical neuronal model obtained from non-transgenic (no Tg) mice was used.
The primary cortical cultures in the present invention were obtained from 3xTg-AD mouse embryos of 15-17 days of gestation and the wild cultures were obtained from non-3xTg control mouse embryos of the same strain. The effect of the compounds used in this invention on cellular viability was estimated by a fluorescence assay using the Alamar Blue viability indicator. To carry out the assay, primary cortical cultures seeded on 96-well plates were used. The neuronal cells were incubated with yessotoxin, which was added to the culture medium at different concentrations, and the effect on in vitro neuronal viability at different treatment times was determined. The maximum concentration of yessotoxin evaluated was 1 nM and the concentration of Alamar blue was 10%.
The reaction volume used was 200 μl. Fluorescence was measured at wavelengths of 530 nm (excitation) and 590 nm (emission).

Data set [2] deals with Tau phosphorylated on Thr212 and Ser214. The data set is described as follows: Phosphorylated Tau (Thr212 and Ser214), Western blot with AT100 antibody. It is filed as cell-based, mouse. Conditions: 3xTg-AD cortical cultures, 1 nM yessotoxin between days 3 and 7 of culture; n=3.
Excerpt: as §1
(§2) The effect of yessotoxin on overexpression of β-amyloid and Tau hyperphosphorylation was determined by immunocytometric and Western blot techniques. Primary neuronal cultures were treated with 1 nM yessotoxin between days 3 and 7 of culture. The cells were then processed following the usual protocols for immunocytometry and Western blot. For immunocytometric and Western blot studies, protein expression was evaluated using 6E10 anti-β-amyloid primary antibodies at a dilution of 1:500, AT8 anti-Tau (Tau phosphorylated on Ser202, dilution 1:1000) and AT100 anti-Tau (Tau phosphorylated on Thr212 and Ser214, dilution 1:1000). […] Total protein concentration was determined by Bradford's method using bovine albumin as standard. […] The membranes were incubated with the primary antibodies, washed, and then incubated with a secondary antibody linked to HRP; the immunoreactivity was detected by chemiluminescence. […]
Background: Immunoblotting shows a protein as a band on a membrane.

Data set [3] relates to Tau phosphorylated on Ser202. The data set is described as follows: Phosphorylated Tau (Ser202), Western blot with AT8 antibody. It is filed as cell-based, mouse. As to conditions: 3xTg-AD cortical cultures, 1 nM yessotoxin between days 3 and 7 of culture; *p<0.05, n=3.
Excerpt: as §1, §2

The next data set deals with β-amyloid. The data set is described as follows: Intracellular β-amyloid expression, immunocytometry with 6E10 antibody. It is filed as cell-based, mouse. Conditions: 3xTg-AD neocortical cultures, 1 nM yessotoxin between days 3 and 7 of culture; **p<0.005 vs transgenic cultures, n=3.
Excerpt: as §1, §2

For data set [4] the following is noted: Paz et al., Marine Drugs 2008; cited from earlier work.

As for yessotoxin, in data set [1], the “effect on in vitro cell viability” value is reported as “did not affect in vitro cell viability”. For the same substance, the “reduction of Tau phosphorylation (AT100, Thr212 and Ser214)” value in data set [2] came to 12%. Moreover, the “Tau phosphorylation (AT8, Ser202)” value in data set [3] is listed as “significant reduction of Tau phosphorylation”. The “overexpression of β-amyloid (6E10 immunoreactivity)” value with β-amyloid is on record as “significant reduction of overexpression of β-amyloid”. Moreover, the oral toxicity entry in data set [4] was “does not exhibit oral toxicity”.
